From patent US20230150986A1, “ANTAGONISTS OF THE MUSCARINIC ACETYLCHOLINE RECEPTOR M4” (Vanderbilt University, priority 2019, published 2023)

Biological target: T1, Human M4 (Homo sapiens, UniProt P08173)
T1 construct: Human or rat M4 cDNA, along with the chimeric G protein Gq,5, were transfected into Chinese hamster ovary (CHO-K1) cells; expressed in transfected cells; host or cells: CHO-K1 (M4/Gqi5/CHO)
T1 sequence (P08173 1-479): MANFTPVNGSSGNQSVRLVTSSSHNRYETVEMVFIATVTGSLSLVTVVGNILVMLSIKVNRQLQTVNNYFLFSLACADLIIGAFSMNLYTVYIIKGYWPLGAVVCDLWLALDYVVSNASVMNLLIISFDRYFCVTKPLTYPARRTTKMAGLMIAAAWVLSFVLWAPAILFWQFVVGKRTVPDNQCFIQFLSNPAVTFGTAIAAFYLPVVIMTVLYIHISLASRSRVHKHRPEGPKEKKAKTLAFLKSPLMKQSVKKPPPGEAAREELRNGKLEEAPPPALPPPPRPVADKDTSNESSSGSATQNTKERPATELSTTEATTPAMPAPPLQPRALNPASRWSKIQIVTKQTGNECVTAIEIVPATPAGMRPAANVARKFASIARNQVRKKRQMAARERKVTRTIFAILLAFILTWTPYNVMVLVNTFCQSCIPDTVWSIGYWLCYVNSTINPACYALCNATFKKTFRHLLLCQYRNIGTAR
Assay: mAChR M4 cell-based functional assay (calcium flux, decrease of EC80 acetylcholine response)
Conditions: for Human M4 Emin: % ACh maximum at 30 μM; for IC50: CHO-K1 cells with human M4 and Gqi5, EC80 acetylcholine
Procedure: Human or rat M4 cDNA, along with the chimeric G protein Gq,5, were transfected into Chinese hamster ovary (CHO-K1) cells purchased from the American Type Culture Collection using Lipofectamine2000. M4/Gqi5/CHO cells were grown in Ham's F-12 medium containing 10% heat-inactivated fetal bovine serum (FBS), 20 mM HEPES, 500 μg/mL G^418 sulfate, and 200 μg/mL Hygromycin B.
For high throughput measurement of agonist-evoked increases in intracellular calcium, CHO-K1 cells stably expressing muscarinic receptors were plated in growth medium lacking G418 and hygromycin at 15,000 cells/20 μL/well in Greiner 384-well black-walled, tissue culture (TC)-treated, clear-bottom plates (VWR). Cells were incubated overnight at 37° C. and 5% CO2. The next day, cells were washed using an ELX 405 (BioTek) with assay buffer; the final volume was then aspirated to 20 μL. Next, 20 μL of a 2.3 μM stock of Fluo-4/acetoxymethyl ester (Invitrogen, Carlsbad, Calif.), prepared as a 2.3 mM stock in DMSO and mixed in a 1:1 ratio with 10% (w/v) Pluronic F-127 and diluted in assay buffer, was added to the wells and the cell plates were incubated for 50 min at 37° C. and 5% CO2. Dye was removed by washing with the ELX 405 and the final volume was aspirated to 20 μL. Compound master plates were formatted in a 10 point concentration-response curve (CRC) format (1:3 dilutions) in 100% DMSO with a starting concentration of 10 or 1 mM using a BRAVO liquid handler (Agilent). Test compound CRCs were then transferred to daughter plates (240 nL) using the Echo acoustic plate reformatter (Labcyte, Sunnyvale, Calif.) and then diluted into assay buffer (40 μL) to a 2× stock using a Thermo Fisher Combi (Thermo Fisher Scientific, Waltham, Mass.).
Calcium flux was measured using the Functional Drug Screening System (FDSS) 6000 or 7000 (Hamamatsu Corporation, Tokyo, Japan) as an increase in the fluorescent static ratio. Compounds were applied to cells (20 μL, 2×) using the automated system of the FDSS at 2 seconds into the protocol and the data were collected at 1 Hz. At 143 s, 10 μL of an EC20 concentration of the muscarinic receptor agonist acetylcholine was added (5×), followed by the addition of […] of an EC80 concentration of acetylcholine at the 268 s time point (5×). Agonist activity was analyzed as a concentration-dependent increase in calcium mobilization upon compound addition. Positive allosteric modulator activity was analyzed as a concentration-dependent increase in the EC2o acetylcholine response. Antagonist activity was analyzed as a concentration-dependent decrease in the EC80 acetylcholine response; for the purposes of the tables herein, an IC50 (inhibitory concentration 50) was calculated as a concentration-dependent decrease of the response elicited by an EC80 concentration of acetylcholine. Concentration-response curves were generated using a four-parameter logistical equation in XLFit curve fitting software (IDBS, Bridgewater, N.J.) for Excel (Microsoft, Redmond, Wash.) or Prism (GraphPad Software, Inc., San Diego, Calif.) or the Dotmatics software platform (Dotmatics, Bishop's Stortford, UK).
Compounds were synthesized as described above. Activity (IC50 and Emin) was determined in the mAChR M4 cell-based functional assay as described above and the data are shown in Table 2.

Human M4 Emin [%] | IC50 [nM] | SMILES
2 | 57.1 | COc1cccc(CN2C[C@H]3C[C@H](Nc4ccc(-c5cc(F)cc(F)c5F)nn4)C[C@H]3C2)n1 [Compound 17, (3aR,5s,6aS)-2-((6-methoxypyridin-2-yl)methyl)-N-(6-(2,3,5-trifluorophenyl)pyridazin-3-yl)octahydrocyclopenta[c]pyrrol-5-amine]
4 | 24.3 | Cc1ccc(CN2C[C@H]3C[C@H](Nc4ccc(-c5cc(F)cc(F)c5F)nn4)C[C@H]3C2)nc1 [Compound 18, (3aR,5s,6aS)-2-((5-methylpyridin-2-yl)methyl)-N-(6-(2,3,5-trifluorophenyl)pyridazin-3-yl)octahydrocyclopenta[c]pyrrol-5-amine]
3 | 133 | Fc1cc(F)c(F)c(-c2ccc(N[C@H]3C[C@@H]4CN(Cc5cc(Cl)ccn5)C[C@@H]4C3)nn2)c1 [Compound 19, (3aR,5s,6aS)-2-((4-chloropyridin-2-yl)methyl)-N-(6-(2,3,5-trifluorophenyl)pyridazin-3-yl)octahydrocyclopenta[c]pyrrol-5-amine]
5 | 111 | Fc1cc(F)c(F)c(-c2ccc(N[C@H]3C[C@@H]4CN(Cc5cccc(Cl)n5)C[C@@H]4C3)nn2)c1 [Compound 20, (3aR,5s,6aS)-2-((6-chloropyridin-2-yl)methyl)-N-(6-(2,3,5-trifluorophenyl)pyridazin-3-yl)octahydrocyclopenta[c]pyrrol-5-amine]
4 | 36.1 | Fc1ccc(CN2C[C@H]3C[C@H](Nc4ccc(-c5cc(F)cc(F)c5F)nn4)C[C@H]3C2)nc1 [Compound 21, (3aR,5s,6aS)-2-((5-fluoropyridin-2-yl)methyl)-N-(6-(2,3,5-trifluorophenyl)pyridazin-3-yl)octahydrocyclopenta[c]pyrrol-5-amine]
4 | 79.2 | Fc1cc(F)c(F)c(-c2ccc(N[C@H]3C[C@@H]4CN(Cc5cccc(F)n5)C[C@@H]4C3)nn2)c1 [Compound 22, (3aR,5s,6aS)-2-((6-fluoropyridin-2-yl)methyl)-N-(6-(2,3,5-trifluorophenyl)pyridazin-3-yl)octahydrocyclopenta[c]pyrrol-5-amine]
5 | 42.4 | Cc1cccnc1CN1C[C@H]2C[C@H](Nc3ccc(-c4cc(F)cc(F)c4F)nn3)C[C@H]2C1 [Compound 23, (3aR,5s,6aS)-2-((3-methylpyridin-2-yl)methyl)-N-(6-(2,3,5-trifluorophenyl)pyridazin-3-yl)octahydrocyclopenta[c]pyrrol-5-amine]
4 | 0.69 | Fc1cc(F)c(F)c(-c2ccc(N[C@H]3C[C@@H]4CN(C[C@@H]5COCCO5)C[C@@H]4C3)nn2)c1 [Compound 28, (3aR,5s,6aS)-2-(((R)-1,4-dioxan-2-yl)methyl)-N-(6-(2,3,5-trifluorophenyl)pyridazin-3-yl)octahydrocyclopenta[c]pyrrol-5-amine]
3 | 48.3 | Fc1cc(F)c(F)c(-c2ccc(N[C@H]3C[C@@H]4CN(C[C@H]5COCCO5)C[C@@H]4C3)nn2)c1 [Compound 29, (3aR,5s,6aS)-2-(((S)-1,4-dioxan-2-yl)methyl)-N-(6-(2,3,5-trifluorophenyl)pyridazin-3-yl)octahydrocyclopenta[c]pyrrol-5-amine]
2 | 63.2 | Fc1cc(F)c(F)c(-c2ccc(N[C@H]3C[C@@H]4CN(C[C@H]5CCOC5)C[C@@H]4C3)nn2)c1 [Compound 30, (3aR,5s,6aS)-2-(((R)-tetrahydrofuran-3-yl)methyl)-N-(6-(2,3,5-trifluorophenyl)pyridazin-3-yl)octahydrocyclopenta[c]pyrrol-5-amine]
3 | 1.47 | Fc1cc(F)c(F)c(-c2ccc(N[C@H]3C[C@@H]4CN(C[C@H]5CC6CCC5O6)C[C@@H]4C3)nn2)c1 (stereo partly drawn) [Compound 31, (3aR,5s,6aS)-2-(((2R)-7-oxabicyclo[2.2.1]heptan-2-yl)methyl)-N-(6-(2,3,5-trifluorophenyl)pyridazin-3-yl)octahydrocyclopenta[c]pyrrol-5-amine]
3 | 0.48 | Fc1cc(F)c(F)c(-c2ccc(N[C@H]3C[C@@H]4CN(C[C@@H]5CC6CCC5O6)C[C@@H]4C3)nn2)c1 (stereo partly drawn) [Compound 32, (3aR,5s,6aS)-2-(((2S)-7-oxabicyclo[2.2.1]heptan-2-yl)methyl)-N-(6-(2,3,5-trifluorophenyl)pyridazin-3-yl)octahydrocyclopenta[c]pyrrol-5-amine]
3 | 39.6 | [2H]C([2H])(N1C[C@H]2C[C@H](Nc3ccc(-c4cc(F)cc(F)c4F)nn3)C[C@H]2C1)C1(CC)CCOCC1 [Compound 33, (3aR,5s,6aS)-2-((4-ethyltetrahydro-2H-pyran-4-yl)methyl-d2)-N-(6-(2,3,5-trifluorophenyl)pyridazin-3-yl)octahydrocyclopenta[c]pyrrol-5-amine]
2 | 38.7 | Fc1cc(F)c(F)c(-c2ccc(N[C@H]3C[C@@H]4CN(C5CCCCC5)C[C@@H]4C3)nn2)c1 [Compound 34, (3aR,5s,6aS)-2-cyclohexyl-N-(6-(2,3,5-trifluorophenyl)pyridazin-3-yl)octahydrocyclopenta[c]pyrrol-5-amine]
3 | 798 | Fc1cc(F)c(F)c(-c2ccc(N[C@H]3C[C@@H]4CN(C5CC6(COC6)C5)C[C@@H]4C3)nn2)c1 [Compound 35, (3aR,5s,6aS)-2-(2-oxaspiro[3.3]heptan-6-yl)-N-(6-(2,3,5-trifluorophenyl)pyridazin-3-yl)octahydrocyclopenta[c]pyrrol-5-amine]
3 | 2.22 | Fc1cc(F)c(F)c(-c2ccc(N[C@H]3C[C@@H]4CN(Cc5cc6n(n5)CCOC6)C[C@@H]4C3)nn2)c1 [Compound 36, (3aR,5s,6aS)-2-((6,7-dihydro-4H-pyrazolo[5,1-c][1,4]oxazin-2-yl)methyl)-N-(6-(2,3,5-trifluorophenyl)pyridazin-3-yl)octahydrocyclopenta[c]pyrrol-5-amine]
11 | 1010 | Fc1cc(F)c(F)c(-c2ccc(N[C@H]3C[C@@H]4CN(Cc5ccc6c(c5)OC(F)(F)O6)C[C@@H]4C3)nn2)c1 [Compound 37, (3aR,5s,6aS)-2-((2,2-difluorobenzo[d][1,3]dioxol-5-yl)methyl)-N-(6-(2,3,5-trifluorophenyl)pyridazin-3-yl)octahydrocyclopenta[c]pyrrol-5-amine]
16 | 5210 | Fc1cc(F)c(F)c(-c2ccc(N[C@H]3C[C@@H]4CN(Cc5ccnnc5)C[C@@H]4C3)nn2)c1 [Compound 38, (3aR,5s,6aS)-2-(pyridazin-4-ylmethyl)-N-(6-(2,3,5-trifluorophenyl)pyridazin-3-yl)octahydrocyclopenta[c]pyrrol-5-amine]
